In test [1] the test system is CEA-expressing human CRC organoids. The test can be described thus: CEA-CAR T cell killing of CRC organoids. In kind it is cell-based. Particulars: 72 h co-culture, UA vs DMSO. Here is the method: In human CRC organoids, CEA-expression was confirmed by flow cytometry […]CEACAM5-APC (487609; FAB41281A; R&D Systems) Before co-culture, CEA-CAR T cells were cultivated in presence or absence of UA for three days. The cytotoxicity assay was performed as described (Schnalzger et al., 2019), using 96 well plates coated with 15 μl Cultrex Basement Membrane Extract, Type 2 per well and organoids were seeded at a ratio of 1:8. Co-culture was performed for three days with 0.5×10^4 CAR T cells per well resuspended in organoid medium (as described above) without IL7/IL15. 100 μl luciferase assay reagent composed of 10% One-Glo EX Reagent (Promega) in lysis buffer (50 mM NaCl, 50 mM Tris-HCl pH 7.4, 1% Triton X-100) was added to each well and incubated at room temperature for 1 h protected from light. 100 μl of each sample was transferred to an opaque 96-well microtiter plate and measured using a SpectraMax iD3 microplate reader (Molecular Devices).

In the next test the test system is Pgam5^−/− CD8^+ T cells. The test can be described thus: aCD3/aCD28 stimulation of Pgam5-/- T cells in presence of UA. The format is cell-based, mice. From the text:
Next the inventors examined whether the observed upregulation of TCF1 was a result of enhanced Wnt signalling. […] To explore whether Pgam5 may be involved in UA-induced Wnt activation, the inventors examined Pgam5 localization upon UA administration. […] More importantly, Pgam5 loss blocked the UA-dependent expansion of CD44^−CD62L^+Sca1^Hi TSCM cells (FIG. 5I).
Splenic murine T cells were isolated from mice aged 6-20 weeks by negative selection with EasySep mouse T cell isolation kit (Stem cell) according to the manufacturer's instructions. To monitor T cell proliferation, purified T cells were loaded with CellTrace Violet (C34557 ThermoFisher Scientific). T cell activation was initiated using αCD3/CD28 activation beads (11456D; ThermoFisher Scientific) at a ratio of 25 μl dynabeads per 0.5×10^6 T-cells. Cells were activated with 25-50 μM Urolithin A (Tocris) or DMSO in T cell activation Medium (RPMI (ThermoFisher Scientific) 10% FBS (South America origin), 10 mM Hepes (Sigma), 1× Non-Essential Amino Acid, 1 mM Sodium Pyruvate, 50 μM B-Mercaptoethanol, 100 U/ml penicillin, 100 μg/ml streptomycin and 2 mM Glutamax (ThermoFisher Scientific) for the indicated durations. In selected experiments, cells were stimulated in the presence of inhibitors, namely TCF1i (ICG-001; SelleckChem; 10 μM) and PGC-1αi (SR-18292, Sigma-Aldrich; 10 μm,). For subsequent analysis, activating beads were magnetically removed prior antibody staining. For human T cells, peripheral blood mononuclear cells were purified with a Ficoll-Paque (GE healthcare) gradient. T cells were enriched with EasySep Human T Cell Isolation Kit (StemCell) and activated with dynabead Human T-Activator CD3/CD28 for T Cell Expansion and Activation Kit (11131D; ThermoFisher Scientific), similar to murine T cell stimulation.
For flow cytometric analysis of mitochondria and lysosomes 500 μl of Mitotracker Red (200 nM; ThermoFisher) or Lysotracker Red DND-99 (75 nM; ThermoFisher) were applied followed by surface staining. To study changes in mitochondrial membrane potential, Mitoprobe TMRM kit (ThermoFisher) was used according to the manufacturer's instructions. Cell proliferation was assessed by CellTrace Violet (Invitrogen, C34557) at a concentration of 5 μM according to manufacturer's instructions. For human samples, cells were stained as described above with Fixable Viability Dye-eF780, αCD95-BV421 (DX2; 562616), αCD62L-PE (DREG-56; 555544), αCCR7-AF700 (150503; 561143), αCD45RO-APC (UCHL; 559865), αCD45RA-FITC (HI100; 555488), αCD8-PE-CF594 (RPA-T8; 562282) and αCD4-BV786 (OKT4; 566806) from BD.

In a further test the test system is T cells. The test can be described thus: immunoblot, cell fractionation and immunofluorescence of stimulated T cells. The format is cell-based, mice. The method, then:
Activated T cells were incubated on Poly-L-lysine coated coverslips for 10 min at 37° C. and then fixed with 4% PFA for 10 min, followed by permeabilization with 0.25% Triton X-100 for 10 mins. Staining for Pgam5 was performed as previously described (Yamaguchi et al., 2019), using rabbit Anti-Pgam5 antibody (ab126534, Abcam). Immune complexes were detected with 1:200-diluted anti-rabbit IgG Alexa Fluor 488 (Thermo Fisher). Nuclei were counterstained with a DAPI-containing liquid […] mountant (ProLong™ Gold Antifade Mountant, Thermo Fisher). Mitochondria were stained with 200 nM Mitotracker Red for 45 min Image were acquired by confocal microscopy.
5×10^6 isolated T cells were stimulated on cell-culture plates coated with 1:200 α-CD3 (145-2C11; 100339; BioLegend) and α-CD28 (37.51; 102115, Biolegend) for the indicated time points. After centrifugation for 5 mins at 1500 rpm, cell pellets were resuspended in complete protein lysis buffer (50 mM Tris pH 7.5, 250 mM sodium chloride, 30 mM EDTA, 25 mM sodium pyrophosphate, 1% Triton-X 100, 0.5% NP-40, 10% glycerol and 1 mM DTT) supplemented with protease and phosphatase inhibitors (Roche). When subcellular location of Pgam5 was studied, a cell fractionation kit (Abcam, Ab109719) was used according to the manufacturer's instructions. Fractionation and whole-cell lysates were snap frozen and stored at −80° C. until further analysis. Collected lysates were mixed with 10% β-mercaptoethanol Laemmli buffer and denatured for 10 min at 70° C. Equal amounts of protein as assessed by Bradford measurement (Pierce™ Coomassie Plus (Bradford) Assay Reagent, ThermoFisher) were subjected to 10-15% SDS-PAGE, then transferred to […] PVDF membranes (MeckMillipore). Membranes were blocked for 30 mins in PBS-T/5% milk or PBST-T/5% BSA prior to antibody incubation overnight with the following antibodies: β-Actin (Sigma; #A4700), Gapdh (Santacruz; sc32233), Parkin (Santacruz; sc32283), Phospho-β-Catenin (CellSignaling; 9561), TOM20 (CellSignaling; D84TN; 42406S); pStat1 (Cellsignaling; 9167) and PGAM5 (Abcam; ab126534). Afterwards, membranes were incubated for one hour with their respective HRP-conjugated secondary antibodies (Santacruz: sc2314 and sc2313), followed by development using SuperSignal West Pico Chemoluminescence Substrate (ThermoFischer Scientific). 2D densitometry was performed using ImageJ Software (National Institutes of Health, Bethesda, Maryland).
(In general: In western blotting, separated proteins are transferred to a membrane and probed.)

The mark [2] stands for this setting: UA treated Pgam5-/- CD8+ T cells, 48 h.

For the compound `O=c1oc2cc(O)ccc2c2ccc(O)cc12` [UA, Urolithin A], the “killing efficacy of CEA-expressing human CRC organoids” value in test [1] is “comparable killing efficacy”. Also, in the test on Pgam5^−/− CD8^+ T cells (Pgam5-/- CD8+ T cells), the lysosome formation result is “still enhanced” and the mitochondrial content entry is on record as “reduced”. Further, the PGC-1a result with Pgam5^−/− CD8^+ T cells (Pgam5-/- CD8+ T cells, 48 h, UA 50 μM) is recorded as “failed to enhance”. Besides, the “UA-dependent expansion of CD44-CD62L+Sca1Hi TSCM cells” value with Pgam5^−/− CD8^+ T cells (Pgam5 loss, 48 h) is listed as “blocked”. In the test on Pgam5^−/− CD8^+ T cells (setting [2]), the TCF1 result is given as “failed to upregulate” and the “memory marker CD95” value is given as “failed to upregulate”. The “phosphorylation of Stat1” value in the test on T cells (UA treated T cells compared to vehicle controls) is listed as “equal phosphorylation”. In addition, the Parkin protein expression result in the test with T cells (immunoblot, 24 h, UA 50 μM) was “stabilized”. Moreover, in the test with T cells (immunoblot, after 6 hours, UA 50 μM), the b-catenin phosphorylation entry is “marked decrease”. Also, in the test on T cells (sub-cellular fractionations and immunofluorescence, 6 h, UA 50 μM), the Pgam5 localization result is given as “rapidly released into the cytoplasma”.

(Values after patent publication US20260069693A1, “UROLITHINS AND T-CELL MEDIATED IMMUNE RESPONSE” (priority 2022, published 2026).)
